Measurements as given in patent publication US20230219904A1 (SYNGENTA CROP PROTECTION AG, priority 2020, published 2023).

What was measured:
Assay type in all cases: in vivo
Settings in all cases: evaluated after 13 days
[1] = test system: Ipomoea hederacea (IPOHE); experiment: Post-emergence herbicidal glasshouse test (Table B1)
How it was run: (§1)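 Application rate was 500 g/h unless otherwise indicated, as a spray prepared from acetone/water (50:50) containing 0.5% Tween 20. Treatment followed one day (pre-emergence) or 8 days (post-emergence) of glasshouse growth, and percentage plant damage was assessed 13 days later on a 1–5 scale.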

[2] = test system: Echinochloa crus-galh (ECHCG); experiment: as above
How it was run: as §1

[3] = test system: Amaranthus retoflexus (AMARE); experiment: as above
How it was run: as §1

[4] = test system: Abutilon theophrasti (ABUTH); experiment: as above
How it was run: as §1

Setaria faberi (SETFA) [5] = experiment: as above
How it was run: as §1

[6] = test system: Ipomoea hederacea (IPOHE); experiment: Pre-emergence herbicidal glasshouse test (Table B1)
How it was run: as §1

[7] = test system: Echinochloa crus-galh (ECHCG); experiment: as above
How it was run: as §1

[8] = test system: Amaranthus retoflexus (AMARE); experiment: as above
How it was run: as §1

[9] = test system: Abutilon theophrasti (ABUTH); experiment: as above
How it was run: as §1

Setaria faberi (SETFA) [10] = experiment: as above
How it was run: as §1

## Cn1nnnc1NC(=O)c1ccc(OCC(F)(F)F)c(NC(=O)C2CC2)c1Cl [Compound 1.017]
[1]; applied at 500 g/h
  POST Application IPOHE, percentage damage on five-point scale: 5 (5=80-100%)
[2]; applied at 500 g/h
  POST Application ECHCG, percentage damage on five-point scale: 5 (5=80-100%)
[3]; applied at 500 g/h
  POST Application AMARE, percentage damage on five-point scale: 5 (5=80-100%)
[4]; applied at 500 g/h
  POST Application ABUTH, percentage damage on five-point scale: 4 (4=60-79%)
Setaria faberi (SETFA) [5]; applied at 500 g/h
  POST Application SETFA, percentage damage on five-point scale: 5 (5=80-100%)
[6]; applied
  PRE Application IPOHE, percentage damage on five-point scale: 5 (5=80-100%)
[7]; applied at 500 g/h
  PRE Application ECHCG, percentage damage on five-point scale: 5 (5=80-100%)
[8]; applied at 500 g/h
  PRE Application AMARE, percentage damage on five-point scale: 5 (5=80-100%)
[9]; applied at 500 g/h
  PRE Application ABUTH, percentage damage on five-point scale: 5 (5=80-100%)
Setaria faberi (SETFA) [10]; applied at 500 g/h
  PRE Application SETFA, percentage damage on five-point scale: 5 (5=80-100%)

## CC(=O)Nc1c(OCC(F)(F)F)ccc(C(=O)Nc2nnnn2C)c1Cl [Compound 1.018, 3-acetamido-2-chloro-N-(1-methyltetrazol-5-yl)-4-(2,2,2-trifluoroethoxy)benzamide]
[1]; applied at 500 g/h
  POST Application IPOHE, percentage damage on five-point scale: 4 (4=60-79%)
[2]; applied at 500 g/h
  POST Application ECHCG, percentage damage on five-point scale: 5 (5=80-100%)
[3]; applied at 500 g/h
  POST Application AMARE, percentage damage on five-point scale: 5 (5=80-100%)
[4]; applied at 500 g/h
  POST Application ABUTH, percentage damage on five-point scale: 5 (5=80-100%)
Setaria faberi (SETFA) [5]; applied at 500 g/h
  POST Application SETFA, percentage damage on five-point scale: 5 (5=80-100%)
[6]; applied
  PRE Application IPOHE, percentage damage on five-point scale: 3 (3=40-59%)
[7]; applied at 500 g/h
  PRE Application ECHCG, percentage damage on five-point scale: 3 (3=40-59%)
[8]; applied at 500 g/h
  PRE Application AMARE, percentage damage on five-point scale: 5 (5=80-100%)
[9]; applied at 500 g/h
  PRE Application ABUTH, percentage damage on five-point scale: 4 (4=60-79%)
Setaria faberi (SETFA) [10]; applied at 500 g/h
  PRE Application SETFA, percentage damage on five-point scale: 3 (3=40-59%)

## Cn1nnnc1NC(=O)c1ccc(OC(F)F)c(NC(=O)C2CC2)c1Cl [Compound 1.019]
[1]; applied at 125 g/ha
  POST Application IPOHE, percentage damage on five-point scale: 5 (5=80-100%)
[2]; applied at 125 g/ha
  POST Application ECHCG, percentage damage on five-point scale: 5 (5=80-100%)
[3]; applied at 125 g/ha
  POST Application AMARE, percentage damage on five-point scale: 5 (5=80-100%)
[4]; applied at 125 g/ha
  POST Application ABUTH, percentage damage on five-point scale: 5 (5=80-100%)
Setaria faberi (SETFA) [5]; applied at 125 g/ha
  POST Application SETFA, percentage damage on five-point scale: 5 (5=80-100%)
[6]; applied at 125 g/ha
  PRE Application IPOHE, percentage damage on five-point scale: 5 (5=80-100%)
[7]; applied at 125 g/ha
  PRE Application ECHCG, percentage damage on five-point scale: 5 (5=80-100%)
[8]; applied at 125 g/ha
  PRE Application AMARE, percentage damage on five-point scale: 5 (5=80-100%)
[9]; applied at 125 g/ha
  PRE Application ABUTH, percentage damage on five-point scale: 5 (5=80-100%)
Setaria faberi (SETFA) [10]; applied at 125 g/ha
  PRE Application SETFA, percentage damage on five-point scale: 5 (5=80-100%)

## CC(C)C(=O)Nc1c(OC(F)F)ccc(C(=O)Nc2nnnn2C)c1Cl [Compound 1.020]
[1]; applied at 125 g/ha
  POST Application IPOHE, percentage damage on five-point scale: 5 (5=80-100%)
[2]; applied at 125 g/ha
  POST Application ECHCG, percentage damage on five-point scale: 5 (5=80-100%)
[3]; applied at 125 g/ha
  POST Application AMARE, percentage damage on five-point scale: 5 (5=80-100%)
[4]; applied at 125 g/ha
  POST Application ABUTH, percentage damage on five-point scale: 5 (5=80-100%)
Setaria faberi (SETFA) [5]; applied at 125 g/ha
  POST Application SETFA, percentage damage on five-point scale: 5 (5=80-100%)
[6]; applied at 125 g/ha
  PRE Application IPOHE, percentage damage on five-point scale: 5 (5=80-100%)
[7]; applied at 125 g/ha
  PRE Application ECHCG, percentage damage on five-point scale: 5 (5=80-100%)
[8]; applied at 125 g/ha
  PRE Application AMARE, percentage damage on five-point scale: 5 (5=80-100%)
[9]; applied at 125 g/ha
  PRE Application ABUTH, percentage damage on five-point scale: 5 (5=80-100%)
Setaria faberi (SETFA) [10]; applied at 125 g/ha
  PRE Application SETFA, percentage damage on five-point scale: 5 (5=80-100%)
